Measured values as given in publication PMC10441804, “Insect fungal pathogens secrete a cell wall-associated glucanase that acts to help avoid recognition by the host immune system” (PLOS Pathogens, 2023).

Biological target: T1, BbEng1 (Beauveria bassiana, UniProt J4W7P1)
T1 construct: gene BBA_04753; full precursor 588 aa, 21-residue signal peptide removed; GH16 domain 22-343; expressed in Pichia pastoris GS115 (pPIC9K), purified, detected by anti-His tag
Assay: glucose release, glucose oxidase method
Format: biochemical
Settings: pH 6.0 (50 mM sodium acetate buffer), 37 °C, 1 h

T1 sequence (J4W7P1 entry or part of it): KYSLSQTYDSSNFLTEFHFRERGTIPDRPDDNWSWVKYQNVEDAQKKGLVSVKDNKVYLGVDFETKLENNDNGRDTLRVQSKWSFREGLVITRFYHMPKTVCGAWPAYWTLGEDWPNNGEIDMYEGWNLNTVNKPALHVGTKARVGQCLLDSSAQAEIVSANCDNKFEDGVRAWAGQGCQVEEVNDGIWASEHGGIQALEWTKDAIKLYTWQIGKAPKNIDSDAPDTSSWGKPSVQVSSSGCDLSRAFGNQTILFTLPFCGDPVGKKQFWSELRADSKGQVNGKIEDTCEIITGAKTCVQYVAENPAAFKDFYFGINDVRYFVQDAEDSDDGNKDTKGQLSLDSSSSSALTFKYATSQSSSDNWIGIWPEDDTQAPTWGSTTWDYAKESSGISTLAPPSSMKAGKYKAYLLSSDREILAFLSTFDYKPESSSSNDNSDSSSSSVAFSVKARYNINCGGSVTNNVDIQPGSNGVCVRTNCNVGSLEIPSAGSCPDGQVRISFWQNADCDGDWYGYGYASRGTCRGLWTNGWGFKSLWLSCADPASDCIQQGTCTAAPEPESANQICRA

With `OC[C@H]1O[C@@H](O[C@@H]2[C@@H](O)[C@H](O[C@@H]3[C@@H](O)[C@H](O[C@H]4[C@H](O)[C@@H](CO)OC(O)[C@@H]4O)O[C@H](CO)[C@H]3O)O[C@H](CO)[C@H]2O)[C@H](O)[C@@H](O)[C@@H]1O` (stereo partly shown) [laminaritetraose] the “glucose release, glucose oxidase method” value was “Measurement of glucanase activity indicated release of reducing sugar from laminaritetraose (β-1,3-glucose)”.
